We go through 73 compounds from patent US11691951B2 (Curtana Pharmaceuticals, Inc., priority 2015, dated 2023).

The assay deals with GBM8 cells (human glioblastoma neurosphere cell culture). Put plainly: GBM8 viability assay (Cell Titer Glo luminescence, 3 days). It counts as cell-based. The note with it: 72 h, 3 days incubation. A digest of the protocol:
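Patient-derived neurosphere cells (4000/well) in NeuroCult medium with rh EGF, rh bFGF and heparin, ultra-low attachment, dosed after overnight settling; 3 days at 37 °C. CellTiter-Glo luminescence versus DMSO controls gave % growth inhibition; IC50 from 4-parameter fit of serial dilutions.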
In general, IC50 refers to the point on the concentration scale where inhibition reaches its midpoint. Higher therefore signals weaker potency in that assay. Compound `Cc1cc(NCCCCO)nc(NC(=O)Nc2cccc(C(F)(F)F)c2)n1` [Compound 181] displayed an IC50 below 1 µM.

In the case of `Cc1cc(NCCN)nc(NC(=O)Nc2cccc(C(F)(F)F)c2)n1` [Compound 182], the IC50 is below 1 µM.

In the case of `Cc1cc(NCCOCCO)nc(NC(=O)Nc2cccc(C(F)(F)F)c2)n1` [Compound 183], the IC50 was 1 to 10 µM.

Regarding `Cc1cc(NCCO)nc(NC(=O)Nc2cccc(C(F)(F)F)c2)n1` [Compound 184], the IC50 was below 1 µM.

Turning to `Cc1cc(NCC(C)O)nc(NC(=O)Nc2cccc(C(F)(F)F)c2)n1` (stereo not shown) [Compound 185], the IC50 was below 1 µM.

Consider `Cc1cc(NCC(O)CO)nc(NC(=O)Nc2cccc(C(F)(F)F)c2)n1` (stereo not shown) [Compound 187], for which the IC50 was below 1 µM.

As to `Cc1cc(NCC(F)(F)CO)nc(NC(=O)Nc2cccc(C(F)(F)F)c2)n1` [Compound 188], the IC50 is below 1 µM.

`Cc1cc(NCCN(C)C)nc(NC(=O)Nc2cccc(C(F)(F)F)c2)n1` [Compound 189] had an IC50 of 1 to 10 µM.

Regarding `Cc1cc(NCCCCN)nc(NC(=O)Nc2cccc(C(F)(F)F)c2)n1` [Compound 190], the IC50 was below 1 µM.

Regarding `Cc1cc(NCCCCN(C)C)nc(NC(=O)Nc2cccc(C(F)(F)F)c2)n1` [Compound 191], the IC50 was below 1 µM.

As to `Cc1cc(NCCCN)nc(NC(=O)Nc2cccc(C(F)(F)F)c2)n1` [Compound 192], the half-inhibitory concentration (IC50) is below 1 µM.

For the compound `CNCCCNc1cc(C)nc(NC(=O)Nc2cccc(C(F)(F)F)c2)n1` [Compound 194, 1-(4-methyl-6-((3-(methylamino)propyl)amino)pyrimidin-2-yl)-3-(3-(trifluoromethyl)phenyl)urea], the IC50 was below 1 µM.

Compound `Cc1cc(NCCCN(C)C)nc(NC(=O)Nc2ccc(C(F)(F)F)cc2)n1` [Compound 196, 1-(4-((3-(dimethylamino)propyl)amino)-6-methylpyrimidin-2-yl)-3-(4-(trifluoromethyl)phenyl)urea] yielded a half-maximal inhibitory concentration (IC50) below 1 µM.

Compound `Cc1cc(NCCCCN)nc(NC(=O)Nc2ccc(C(F)(F)F)cc2)n1` [Compound 197] displayed an IC50 below 1 µM.

`Cc1cc(NCC(C)O)nc(NC(=O)Nc2ccc(C(F)(F)F)cc2)n1` (stereo not shown) [Compound 198] registered a half-inhibitory concentration (IC50) below 1 µM.

Consider `Cc1cc(NCCOCCO)nc(NC(=O)Nc2ccc(C(F)(F)F)cc2)n1` [Compound 199], for which the IC50 is below 1 µM.

In turn, `Cc1cc(NCCCCO)nc(NC(=O)Nc2ccc(C(F)(F)F)cc2)n1` [Compound 200] showed an IC50 below 1 µM.

Consider `Cc1cc(NCCO)nc(NC(=O)Nc2ccc(C(F)(F)F)cc2)n1` [Compound 201], for which the IC50 was below 1 µM.

Compound `CCCNc1cc(C)nc(NC(=O)Nc2ccc(C(F)(F)F)cc2)n1` [Compound 202] came in with an IC50 below 1 µM.

Consider `Cc1cc(NCCN(C)C)nc(NC(=O)Nc2ccc(C(F)(F)F)cc2)n1` [Compound 203], for which the IC50 was below 1 µM.

Take `Cc1cc(NCCCN)nc(NC(=O)Nc2ccc(C(F)(F)F)cc2)n1` [Compound 204]: the IC50 was in the range of 1 to 10 µM.

Compound `CNCCCN(C)c1cc(C)nc(NC(=O)Nc2ccc(C(F)(F)F)cc2)n1` [Compound 205] returned an IC50 of 1 to 10 µM.

On to `Cc1cc(NCC2CCCN(C)C2)nc(NC(=O)Nc2ccc(C(F)(F)F)cc2)n1` (stereo not shown) [Compound 206], for which the IC50 lay within 1 to 10 µM.

Consider `Cc1cc(NCCN)nc(NC(=O)Nc2ccc(C(F)(F)F)cc2)n1` [Compound 207], for which the IC50 was below 1 µM.

For the compound `Cc1cccc(NC(=O)Nc2nc(C)cc(NCCCN(C)C)n2)c1` [Compound 209, 1-(4-((3-(dimethylamino)propyl)amino)-6-methylpyrimidin-2-yl)-3-(m-tolyl)urea], the IC50 is below 1 µM.

For `Cc1cccc(NC(=O)Nc2nc(C)cc(NCCCN)n2)c1` [Compound 210], the IC50 was below 1 µM.

`Cc1cccc(NC(=O)Nc2nc(C)cc(NCCO)n2)c1` [Compound 211] yielded an IC50 below 1 µM.

In turn, `Cc1cccc(NC(=O)Nc2nc(C)cc(NCCCCO)n2)c1` [Compound 212] showed an IC50 below 1 µM.

Compound `Cc1cccc(NC(=O)Nc2nc(C)cc(NCCN)n2)c1` [Compound 213] yielded an IC50 below 1 µM.

`Cc1cccc(NC(=O)Nc2nc(C)cc(NCC3CCCN(C)C3)n2)c1` (stereo not shown) [Compound 214] yielded an IC50 of 1 to 10 µM.

With `Cc1cccc(NC(=O)Nc2nc(C)cc(NCCN(C)C)n2)c1` [Compound 215], the IC50 is below 1 µM.

`Cc1cccc(NC(=O)Nc2nc(C)cc(NCCCCN)n2)c1` [Compound 216] displayed an IC50 below 1 µM.

Consider `Cc1cccc(NC(=O)Nc2nc(C)cc(NCCOCCO)n2)c1` [Compound 217], for which the IC50 is below 1 µM.

On to `CCCNc1cc(C)nc(NC(=O)Nc2cccc(C)c2)n1` [Compound 218], for which the concentration for half-maximal inhibition (IC50) was below 1 µM.

On to `Cc1cccc(NC(=O)Nc2nc(C)cc(NCC(C)O)n2)c1` (stereo not shown) [Compound 219], for which the IC50 is below 1 µM.

Turning to `COC(=O)CCNc1cc(C)nc(NC(=O)Nc2cccc(C)c2)n1` [Compound 220], the IC50 fell in the range of 1 to 10 µM.

Consider `Cc1cccc(NC(=O)Nc2nc(C)cc(NCCCc3ccccn3)n2)c1` [Compound 221], for which the IC50 is 1 to 10 µM.

Compound `Cc1cccc(NC(=O)Nc2nc(C)cc(NCC(O)CO)n2)c1` (stereo not shown) [Compound 223] returned an IC50 below 1 µM.

Consider `CCNc1cc(C)nc(NC(=O)Nc2cccc(C)c2)n1` [Compound 224], for which the concentration for half-maximal inhibition (IC50) is below 1 µM.

In the case of `Cc1cccc(NC(=O)Nc2nc(C)cc(NCCCc3cnc[nH]3)n2)c1` [Compound 226], the 50% inhibitory concentration (IC50) was below 1 µM.

For the compound `Cc1cccc(NC(=O)Nc2nc(C)cc(NCCCCN(C)C)n2)c1` [Compound 227], the IC50 is below 1 µM.

Turning to `CNCCNc1cc(C)nc(NC(=O)Nc2cccc(C)c2)n1` [Compound 229, 1-(4-methyl-6-((2-(methylamino)ethyl)amino)pyrimidin-2-yl)-3-(m-tolyl)urea], the IC50 is 1 to 10 µM.

As for `CNCCCNc1cc(C)nc(NC(=O)Nc2cccc(C)c2)n1` [Compound 230], the IC50 was below 1 µM.

Consider `CNCCCCNc1cc(C)nc(NC(=O)Nc2cccc(C)c2)n1` [Compound 231], for which the IC50 fell in the range of 1 to 10 µM.

`Cc1cccc(NC(=O)Nc2nc(C)cc(NCC3CCCNC3)n2)c1` (stereo not shown) [Compound 232] showed an IC50 below 1 µM.

As to `Cc1ccc(NC(=O)Nc2nc(C)cc(NCCCN(C)C)n2)cc1` [Compound 234, 1-(4-((3-(dimethylamino)propyl)amino)-6-methylpyrimidin-2-yl)-3-(p-tolyl)urea], the IC50 is below 1 µM.

For the compound `Cc1ccc(NC(=O)Nc2nc(C)cc(NCCCN)n2)cc1` [Compound 236], the concentration for half-maximal inhibition (IC50) was below 1 µM.

As to `Cc1ccc(NC(=O)Nc2nc(C)cc(NCCN)n2)cc1` [Compound 237], the IC50 was below 1 µM.

`Cc1ccc(NC(=O)Nc2nc(C)cc(NCCOCCO)n2)cc1` [Compound 238] gave an IC50 of 1 to 10 µM.

As for `Cc1ccc(NC(=O)Nc2nc(C)cc(NCCCCO)n2)cc1` [Compound 239], the IC50 is below 1 µM.

Take `Cc1ccc(NC(=O)Nc2nc(C)cc(NCCO)n2)cc1` [Compound 240]: the IC50 was below 1 µM.

As to `Cc1ccc(NC(=O)Nc2nc(C)cc(NCCCCN)n2)cc1` [Compound 241], the IC50 was below 1 µM.

For the compound `Cc1ccc(NC(=O)Nc2nc(C)cc(NCCN(C)C)n2)cc1` [Compound 242], the IC50 was in the range of 1 to 10 µM.

In the case of `Cc1ccc(NC(=O)Nc2nc(C)cc(NCCCc3cnc[nH]3)n2)cc1` [Compound 243], the IC50 was below 1 µM.

`Cc1ccc(NC(=O)Nc2nc(C)cc(NCCCCN(C)C)n2)cc1` [Compound 245] gave an IC50 of 1 to 10 µM.

`Cc1ccc(NC(=O)Nc2nc(C)cc(NCC(O)CO)n2)cc1` (stereo not shown) [Compound 246]: the IC50 was below 1 µM.

On to `CNCCCNc1cc(C)nc(NC(=O)Nc2ccc(C)cc2)n1` [Compound 248, 1-(4-methyl-6-((3-(methylamino)propyl)amino)pyrimidin-2-yl)-3-(p-tolyl)urea], for which the IC50 is 1 to 10 µM.

As for `Cc1ccc(NC(=O)Nc2nc(C)cc(NCC3CCCNC3)n2)cc1` (stereo not shown) [Compound 249, 1-(4-methyl-6-((piperidin-3-ylmethyl)amino)pyrimidin-2-yl)-3-(p-tolyl)urea], the half-inhibitory concentration (IC50) is 1 to 10 µM.

`Cc1cc(NCCCN(C)C)nc(NC(=O)Nc2ccc(C)c(C)c2)n1` [Compound 251, 1-(4-((3-(dimethylamino)propyl)amino)-6-methylpyrimidin-2-yl)-3-(3,4-dimethylphenyl)urea] registered an IC50 below 1 µM.

In turn, `Cc1cc(NCCCN)nc(NC(=O)Nc2ccc(C)c(C)c2)n1` [Compound 253] returned an IC50 below 1 µM.

Regarding `Cc1cc(NCCCCN)nc(NC(=O)Nc2ccc(C)c(C)c2)n1` [Compound 254], the IC50 was below 1 µM.

Compound `Cc1cc(NCCCCO)nc(NC(=O)Nc2ccc(C)c(C)c2)n1` [Compound 255] yielded an IC50 below 1 µM.

Take `Cc1cc(NCCCCN(C)C)nc(NC(=O)Nc2ccc(C)c(C)c2)n1` [Compound 256]: the IC50 was below 1 µM.

Regarding `Cc1cc(NCC2CCCN(C)C2)nc(NC(=O)Nc2ccc(C)c(C)c2)n1` (stereo not shown) [Compound 258], the half-maximal inhibitory concentration (IC50) lay in the range of 1 to 10 µM.

As for `Cc1cc(NCCO)nc(NC(=O)Nc2ccc(C)c(C)c2)n1` [Compound 259], the IC50 is below 1 µM.

In the case of `Cc1cc(NCCOCCO)nc(NC(=O)Nc2ccc(C)c(C)c2)n1` [Compound 260], the concentration for half-maximal inhibition (IC50) was 1 to 10 µM.

The compound `CCCNc1cc(C)nc(NC(=O)Nc2ccc(C)c(C)c2)n1` [Compound 261] returned an IC50 below 1 µM.

For the compound `Cc1cc(NCC(C)O)nc(NC(=O)Nc2ccc(C)c(C)c2)n1` (stereo not shown) [Compound 262], the concentration for half-maximal inhibition (IC50) was below 1 µM.

Consider `Cc1cc(NCC(O)CO)nc(NC(=O)Nc2ccc(C)c(C)c2)n1` (stereo not shown) [Compound 264], for which the 50% inhibitory concentration (IC50) was below 1 µM.

Turning to `Cc1cc(NCCCc2cnc[nH]2)nc(NC(=O)Nc2ccc(C)c(C)c2)n1` [Compound 266], the IC50 was below 1 µM.

For the compound `CNCCNc1cc(C)nc(NC(=O)Nc2ccc(C)c(C)c2)n1` [Compound 268, 1-(3,4-dimethylphenyl)-3-(4-methyl-6-((2-(methylamino)ethyl)amino)pyrimidin-2-yl)urea], the IC50 lay within 1 to 10 µM.

Consider `CNCCCNc1cc(C)nc(NC(=O)Nc2ccc(C)c(C)c2)n1` [Compound 269], for which the IC50 was below 1 µM.

`CNCCCCNc1cc(C)nc(NC(=O)Nc2ccc(C)c(C)c2)n1` [Compound 270] yielded an IC50 below 1 µM.
